# Measurements reported in PMC10589713 (Proceedings of the National Academy of Sciences of the …, 2023).
# Several values for one entry are separate records, joined by “and”; a condition that tells them apart may be missing. Equal entries are not always repeated.
# What was measured:
# [1] = test system: rgDENV2 NS5-G605V; format: cell-based, dengue virus
# [2] = test system: V79 cells
# [3] = test system: ZIKV; experiment: microbe, parasite or virus in culture; format: cell-based; conditions: Zika virus, BHK-21, 72 h
# [4] = test system: IAV H5N1; experiment: microbe, parasite or virus in culture; format: cell-based; conditions: Influenza A virus, H5N1, A549
# [5] = mouse, in vivo
# [6] = test system: JUNV; experiment: microbe, parasite or virus in culture; format: cell-based; conditions: Mammarenavirus juninense, HEK-293T
# [7] = test system: MERS-CoV; experiment: microbe, parasite or virus in culture; format: cell-based; conditions: Middle East respiratory syndrome-related coronavirus, VeroE6/TMPRSS2
# [8] = test system: LPHV; experiment: microbe, parasite or virus in culture; format: cell-based; conditions: Leopards Hill virus
# [9] = test system: rgDENV2 Wild type; experiment: microbe, parasite or virus in culture; format: cell-based; conditions: Dengue virus, BHK-21, 96 h
# [10] = test system: YFV; experiment: microbe, parasite or virus in culture; format: cell-based; conditions: Yellow fever virus, BHK-21, 72 h
# [11] = test system: LCMV; experiment: microbe, parasite or virus in culture; format: cell-based; conditions: Mammarenavirus choriomeningitidis
# [12] = test system: RVFV; experiment: microbe, parasite or virus in culture; format: cell-based; conditions: Rift Valley fever virus, MDCK
# [13] = test system: IAV H7N9; experiment: microbe, parasite or virus in culture; format: cell-based; conditions: Influenza A virus, H7N9, MA104
# [14] = test system: SFTSV; experiment: microbe, parasite or virus in culture; format: cell-based; conditions: Severe fever with thrombocytopenia syndrome virus, MDCK
# [15] = test system: DENV2; experiment: microbe, parasite or virus in culture; format: cell-based; conditions: Dengue virus, DENV2, BHK-21, 96 h
# [16] = test system: DENV2; experiment: microbe, parasite or virus in culture; format: cell-based; conditions: Dengue virus, DENV2, Huh-7
# [17] = test system: LACV; experiment: organism not typed; format: cell-based; conditions: MDBK
# [18] = test system: SARS-CoV-2; experiment: microbe, parasite or virus in culture; format: cell-based; conditions: Severe acute respiratory syndrome coronavirus 2, VeroE6/TMPRSS2
# [19] = test system: CHIKV; experiment: microbe, parasite or virus in culture; format: cell-based; conditions: Chikungunya virus, BHK-21
# [20] = test system: DENV2 AG-P10; parameters: species or system AG129 mice; conditions: mouse, in vivo
# [21] = biological target: ZIKV NS5 (RdRp) (Zika virus, UniProt A0A024B7W1); format: biochemical
# Chain of ZIKV NS5 (RdRp) (A0A024B7W1 2521-3423 limits assumed): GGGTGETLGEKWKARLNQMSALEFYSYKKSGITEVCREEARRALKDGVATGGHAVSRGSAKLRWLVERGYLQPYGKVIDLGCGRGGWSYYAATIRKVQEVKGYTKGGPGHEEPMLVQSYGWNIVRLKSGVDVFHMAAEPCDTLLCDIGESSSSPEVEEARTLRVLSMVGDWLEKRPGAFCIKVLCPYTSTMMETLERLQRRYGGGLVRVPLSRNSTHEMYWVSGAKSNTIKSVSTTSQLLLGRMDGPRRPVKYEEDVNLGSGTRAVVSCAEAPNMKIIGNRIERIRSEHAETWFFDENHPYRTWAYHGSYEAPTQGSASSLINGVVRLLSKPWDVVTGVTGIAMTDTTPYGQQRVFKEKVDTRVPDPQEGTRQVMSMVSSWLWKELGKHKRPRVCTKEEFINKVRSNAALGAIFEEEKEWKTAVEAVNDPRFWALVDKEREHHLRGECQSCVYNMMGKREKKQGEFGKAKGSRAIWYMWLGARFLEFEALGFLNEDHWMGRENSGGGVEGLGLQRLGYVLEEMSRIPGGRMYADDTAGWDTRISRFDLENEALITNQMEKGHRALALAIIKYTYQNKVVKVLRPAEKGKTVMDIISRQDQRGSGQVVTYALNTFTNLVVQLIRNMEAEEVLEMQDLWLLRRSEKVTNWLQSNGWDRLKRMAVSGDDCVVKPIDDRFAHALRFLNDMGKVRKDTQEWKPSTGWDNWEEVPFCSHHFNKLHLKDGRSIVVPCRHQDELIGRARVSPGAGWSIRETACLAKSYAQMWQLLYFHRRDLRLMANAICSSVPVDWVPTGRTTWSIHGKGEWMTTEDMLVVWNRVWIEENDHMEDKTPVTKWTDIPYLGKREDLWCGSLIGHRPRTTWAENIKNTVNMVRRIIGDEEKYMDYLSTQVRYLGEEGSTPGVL
smiles,measurement,setting,value
NC(=O)c1nc(F)c[nH]c1=O [Favipiravir],Fold change,[1],2.2
NC(=O)c1ncn([C@@H]2O[C@H](CO)[C@@H](O)[C@H]2O)n1 [Ribavirin],Fold change,[1],2.3
"O=c1ccn([C@@H]2O[C@H](CO)[C@@H](O)[C@H]2O)c(=S)[nH]1 [s2U, 2-thiouridine]","mutagenicity, HPRT (in vitro gene mutation test)",[2],does not have sufficient ability to introduce mutations
same,EC50,[3],3.8 ± 0.96 µM
same,EC50,[1],5.1 ± 0.69 µM
same,EC50,[4],> 100 µM
same,body weight change,[5],no BW loss
same,EC50,[6],> 100 µM
same,EC50,[7],2.3 µM
same,EC50,[8],> 100 µM
same,EC50,[9],0.86 ± 0.12 µM
same,EC50,[10],3.2 ± 1.4 µM
same,EC50,[11],> 100 µM
same,EC50,[12],> 100 µM
same,EC50,[13],> 100 µM
same,EC50,[14],> 100 µM
same,EC50,[15],1.5 ± 0.1 µM
same,EC50,[16],< 0.63 µM
same,EC90,[16],3.4 µM
same,EC50,[17],> 100 µM
same,EC50,[18],2.3 ± 0.43 µM
same,EC50,[19],3.8 ± 0.12 µM
same,median survival,[20],12.5 days and > 16 days and 12 days and 13 days
"O=c1ccn([C@@H]2O[C@H](COP(=O)(O)OP(=O)(O)OP(=O)(O)O)[C@@H](O)[C@H]2O)c(=S)[nH]1 [s2UTP, s2U 5′-triphosphate]",RNA extension catalyzed by ZIKV RdRp,[21],inhibited RNA extension
